Data on 23 compounds can be found in PubChem BioAssay (NCI).

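Results reflect a 48-hour exposure of cells in 96-well plates to compound at five concentrations. TGI: total growth inhibition.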 Where a SMILES comes first, the peptide text is derived from it. The star is where a group is joined. Boc = CC(C)(C)OC(=O)*

Test in all cases: NCI-60 cell line screen, 48 h
In experiment [1] the test system is K-562 leukemia.
Experiment [2] deals with SK-MEL-2 melanoma.
In experiment [3] the test system is M14 melanoma.
The subject of experiment [4] is SK-MEL-28 melanoma.
Experiment [5] concerns CCRF-CEM leukemia.
Experiment [6] deals with HS 578T breast.
Experiment [7] deals with A498 renal.
Experiment [8] deals with NCI/ADR-RES ovarian.
Experiment [9] deals with T-47D breast.
Experiment [10] relates to UACC-257 melanoma.

For the compound `CC(=O)O[C@H]1C(=O)[C@@]2(C)[C@H]([C@H](OC(=O)c3ccccc3)[C@]3(O)C[C@H](OC(=O)[C@H](O)[C@@H](NC(=O)c4ccccc4)c4ccc5ccccc5c4)C(C)=C1C3(C)C)[C@]1(OC(C)=O)CO[C@@H]1C[C@@H]2O`, the TGI in [1] is 2.05 µM; in [2], 0.173 µM; in experiment [3], 1.85 µM; in [4] it was greater than 23.1 µM; in experiment [5], greater than 11.2 µM; in [6], 0.148 µM. In addition, the TGI in experiment [7] is 6.96 µM; in [8], greater than 50 µM; in experiment [9] it was greater than 50 µM; in [10], 8.22 µM.

Regarding `CCOC(=O)/C=C(/C(=O)OCC)n1cc(C)c(=O)n(Cc2cnnn2COCCOC(C)=O)c1=O`, the TGI in [1] stood at 24.8 µM; in experiment [2], 60.3 µM; in [3], 31.8 µM; in experiment [4], 47.5 µM; in experiment [5], 5.8 µM; in [6] it was 74 µM. Besides, the TGI in experiment [7] was 90 µM; in experiment [8], 61.3 µM; in [9], 46.7 µM; in [10], 28.6 µM.

With `CC(C)C(Nc1ncnc2nc[nH]c12)C(=O)O` (stereo not given), the TGI in experiment [1], in experiment [2], in experiment [3], in [4], in [5] and in experiment [6] was greater than 100 µM each time. Also, the TGI in experiment [7], in experiment [8], in experiment [9] and in experiment [10] was greater than 100 µM throughout.

Regarding `O=C(CCBr)N1CCN(C(=O)CCBr)CC1`, the TGI was 459 µM in [1]; 221 µM in experiment [2]; 131 µM in experiment [3]; 252 µM in experiment [4]; 257 µM in [5]; 455 µM in experiment [6]. Moreover, the TGI in experiment [7] is 165 µM; in experiment [8], 221 µM; in experiment [9], 232 µM; in [10], 246 µM.

Consider `O=C1c2cc(I)ccc2N2CCN=C2N1Cc1ccccc1`, for which the TGI in experiment [1], in [2], in [3], in experiment [4], in experiment [5] and in experiment [6] was greater than 100 µM throughout. For the same compound, the TGI in experiment [7] is 94.1 µM; in experiment [8], greater than 100 µM; in experiment [9] it was greater than 100 µM; in experiment [10] it was greater than 100 µM.

For `CCOC(=O)c1[nH]cc(C)c1-c1cccn1-c1ccc(Cl)cc1[N+](=O)[O-]`, the TGI was found to be 53.3 µM in experiment [1]; 39.2 µM in experiment [2]; 41 µM in [3]; 55.7 µM in experiment [4]; 64.3 µM in experiment [5]; 51.2 µM in experiment [6]. The TGI in experiment [7] is greater than 100 µM; in [8], 52.9 µM; in experiment [9] it was greater than 100 µM; in experiment [10], 67.8 µM.

For `CC(=O)C1=C(C)O[C@@H]2O[C@H](COCc3ccccc3)[C@@H](OCc3ccccc3)[C@H](O)[C@@H]2S1`, the TGI was determined as 50.3 µM in experiment [1]; 39.1 µM in experiment [2]; 39.8 µM in experiment [3]; 64 µM in [4]; 16.8 µM in experiment [5]; 39.9 µM in experiment [6]. Further, the TGI in experiment [7] was determined as 71 µM; in [8], 51.6 µM; in experiment [9], 21.5 µM; in experiment [10] it was 39.7 µM.

Take `N[C@H]1c2c(Br)sc(Br)c2C(=O)[C@H]1O`: the TGI in experiment [1] was 15.2 µM; in experiment [2] it was 69.9 µM; in experiment [3], 48.4 µM; in experiment [4] it was 26.7 µM; in [5], 6.63 µM; in [6], greater than 87.8 µM. The TGI in [7] is greater than 100 µM; in [8] it was greater than 58.9 µM; in experiment [9] it was 50.3 µM; in experiment [10], 29.7 µM.

In the case of `CC(C)(C)COC(=O)C(C)(C)NC(=O)C(CC(=O)OCc1ccccc1)NC(=O)OCc1ccccc1` (stereo not given), the TGI in experiment [1], in [2], in [3], in experiment [4], in experiment [5] and in [6] was greater than 100 µM in each case. The TGI in [7] was 79.5 µM; in experiment [8], greater than 100 µM; in experiment [9] it was 60.2 µM; in experiment [10], 82.1 µM.

Regarding `Cn1c(-c2ccc[se]2)ccc1-c1ccc(C=O)[se]1`, the TGI in experiment [1] is greater than 100 µM; in experiment [2], greater than 100 µM; in experiment [3], greater than 100 µM; in experiment [4], greater than 100 µM; in [5] it was 14.1 µM; in [6], greater than 89.9 µM. Besides, the TGI in experiment [7] came to 3.01 µM; in experiment [8] it was 9.13 µM; in experiment [9], 12.4 µM; in experiment [10], 3.5 µM.

With `C/C=C1/CN2CCC34c5ccccc5N(C)C23C2CC1C4(C(=O)OC)C(OC(C)=O)O2` (stereo not given), the TGI in experiment [1], in [2], in experiment [3], in experiment [4], in [5] and in experiment [6] was greater than 100 µM throughout. The TGI in experiment [7], in experiment [8], in experiment [9] and in [10] was greater than 100 µM in each case.

For the compound `O=C(NC(=S)Nc1ccc([N+](=O)[O-])cc1)c1ccc2c(c1)Sc1ccccc1O2`, the TGI in [1] is greater than 100 µM; in experiment [2], greater than 100 µM; in [3] it was greater than 100 µM; in experiment [4], greater than 100 µM; in [5], greater than 100 µM; in [6], 79 µM. The TGI in experiment [7], in experiment [8], in [9] and in experiment [10] was greater than 100 µM each time.

For the compound `COc1ccc(-n2c(SC(CN3CCOCC3)CN3CCCC3=O)nc3ccccc3c2=O)cc1` (stereo not given), the TGI in experiment [1], in [2], in experiment [3], in [4], in experiment [5] and in experiment [6] was greater than 100 µM in each case. In addition, the TGI in experiment [7], in experiment [8], in experiment [9] and in experiment [10] was greater than 100 µM throughout.

As to `Cc1ncc([N+](=O)[O-])n1CC[N+](C)([O-])CCCCn1ccnc1[N+](=O)[O-]` (stereo not given), the TGI in experiment [1], in [2], in experiment [3], in experiment [4], in experiment [5] and in experiment [6] was greater than 100 µM throughout. The TGI in [7], in experiment [8], in [9] and in experiment [10] was greater than 100 µM in each case.

For the compound `CCn1c2nc(=O)n(CCCCCCCCSC(c3ccccc3)(c3ccccc3)c3ccccc3)c(=O)c-2nc2ccccc21`, the TGI in [1] is greater than 100 µM; in experiment [2], greater than 100 µM; in [3] it was 31.6 µM; in [4], greater than 100 µM; in [5] it was greater than 100 µM; in experiment [6], greater than 100 µM. The TGI in [7], in [8], in [9] and in [10] was greater than 100 µM in each case.

Turning to `O=C(c1ccccc1)N1CCN(C(=S)NC2CCCCC2)C1=S`, the TGI in experiment [1] turned out to be 96.8 µM; in experiment [2], 14.9 µM; in experiment [3], 31.3 µM; in experiment [4], 31.2 µM; in experiment [5], 45.1 µM; in experiment [6], 50.3 µM. The TGI was found to be 43.3 µM in experiment [7], 43.6 µM in [8], 53.1 µM in experiment [9] and 38.6 µM in experiment [10].

Consider `Oc1c(CN2CCCC2)ccc2cccnc12`, for which the TGI in experiment [1] is greater than 100 µM; in [2], greater than 95.6 µM; in experiment [3] it was 80.7 µM; in [4] it was greater than 100 µM; in [5], greater than 73.6 µM; in experiment [6], greater than 100 µM. Further, the TGI in experiment [7] is greater than 70.3 µM; in experiment [8], 8.23 µM; in experiment [9], greater than 100 µM; in experiment [10], greater than 100 µM.

In the case of `COc1ccc2nc3c([N+](=O)[O-])ccc(NCCN(C)C)c3c(N)c2c1`, the TGI worked out at 0.607 µM in [1]; 4.76 µM in experiment [2]; 3.03 µM in [3]; 4.16 µM in [4]; 0.531 µM in [5]; 4.5 µM in experiment [6]. The TGI in [7] came to 4.31 µM; in experiment [8], 3.03 µM; in [9], 2.91 µM; in experiment [10], 3.99 µM.

As for `Clc1ccc(CCNC2(c3cc4ccccc4s3)CCCCC2)cc1Cl`, the TGI in experiment [1] is 36.7 µM; in experiment [2] it was 36.8 µM; in experiment [3], greater than 100 µM; in experiment [4], 87.2 µM; in experiment [5], 31 µM; in experiment [6], greater than 100 µM. In addition, the TGI is 39.9 µM in experiment [7], 80.8 µM in experiment [8], 46 µM in experiment [9] and 42.7 µM in experiment [10].

Take `CN(C)CN1CSC(=S)N(CN(C)C)C1`: the TGI was greater than 100 µM in experiment [1]; 96.3 µM in experiment [2]; greater than 100 µM in experiment [3]; greater than 100 µM in experiment [4]; greater than 100 µM in experiment [5]; greater than 100 µM in [6]. For the same compound, the TGI in experiment [7], in experiment [8], in [9] and in experiment [10] was greater than 100 µM in each case.

As to `COC(=O)C(Cc1ccccc1)NC(=O)C(CS)NC(=O)OC(C)(C)C` (stereo not drawn) (Boc-Cys-Phe-OMe; configuration not given here), the TGI in experiment [1] was greater than 100 µM; in experiment [2], greater than 100 µM; in experiment [3] it was greater than 100 µM; in experiment [4], greater than 100 µM; in [5] it was 89.3 µM; in experiment [6], greater than 100 µM. Moreover, the TGI in experiment [7], in experiment [8], in experiment [9] and in [10] was greater than 100 µM in each case.

As for `CC(C)NC(=O)OCc1c(COC(=O)NC(C)C)c(-c2ccc[n+](COC(=O)Cc3ccccc3)c2)n2c1CCC2`, the TGI was greater than 100 µM in experiment [1]; 62.1 µM in experiment [2]; greater than 100 µM in [3]; greater than 100 µM in [4]; greater than 100 µM in experiment [5]; greater than 100 µM in experiment [6]. In addition, the TGI in experiment [7] was 44.7 µM; in experiment [8], greater than 100 µM; in experiment [9], greater than 100 µM; in [10], greater than 100 µM.

As for `Cn1cnc(N2CCCC2)c(C#N)c1=S`, the TGI in experiment [1], in experiment [2], in experiment [3], in experiment [4], in [5] and in [6] was greater than 100 µM in each case. In addition, the TGI in [7], in experiment [8], in experiment [9] and in experiment [10] was greater than 100 µM each time.
